Experiment [1] deals with P(40) particulate fraction of Methylosinus sp. (CRL-15, NRRL B-11,202). As to the kind of experiment: Stoichiometry of propylene epoxidation and methane hydroxylation by P(40) fraction. Conditions: 5.0 μmoles substrate. Format: biochemical. As for the experimental part:
The particulate P(40) fraction of Methylosinus sp. (CRL-15, NRRL B-11,202) was used to determine the stoichiometry of hydroxylation and epoxidation reactions. The stoichiometry of methane or propylene-dependant NADH oxidation, oxygen consumption and product formation was approximately 1:1:1 Table XIV. This is consistent with methane or propylene oxygenation being catalyzed by a mono-oxygenase.
^a Under identical condition of reaction, the estimation of NADH
oxidized was carried out spectrophotometrically, the estimation of oxygen
consumed was measured polarographically, and estimation of product formed
was carried out by gas chromatography.

The test system of experiment [2] is cell-free particulate fractions derived from the methylotrophic microorganisms. Kind of experiment: Conversion of C3-C6 n-alkanes to sec. alcohols by cell-free particulate fractions: inhibitors and electron donors. The class given is biochemical. The source says:
The conditions for preparing the cell suspensions or the cell-free particulate fractions from methane-grown methylotroph microorganisms is the same as described above. […] Tables XXV and XXVI show the conversion of C3 -C6 n-alkanes to the corresponding secondary alcohols using cell suspensions and cell-free particulate fractions, respectively, of methane-grown methylotroph microorganisms.

The test system of experiment [3] is P(40) particulate fraction of Methylosinus sp. (CRL-15, NRRL B-11,202). As to the kind of experiment: Oxidation of n-alkenes and n-alkanes by P(40) particulate fraction. The class given is biochemical. Conditions: for Rate of Product Formation: substrate oxidized to its epoxide or alcohol, 30° C.
For experiment [4], the system named is Methylosinus trichosporium OB3b (NRRL B-11,196). As to the kind of experiment: Stoichiometry of the epoxidation of propylene by a cell-suspension. The class given is cell-based. Conditions: 3 min., 3.1 mg. protein, 3.6 μmoles propylene. As for the experimental part: As a comparison the stoichiometry of the epoxidation of propylene by a cell-suspension of Methylosinus trichosporium OB3b (NRRL B-11,196) was determined as follows. The reaction mixture (3.0 ml.) contained 0.05 M sodium phosphate buffer, pH 7.0 and 3.6 μmoles of propylene. The reaction was initiated by the injection of 0.1 ml. of cell-suspension (3.1 mg. protein). A correction was made for the endogenous consumption of oxygen. The amount of oxygen consumed during the reaction (3 min.) was determined polarographically with a Clark oxygen electrode. The propylene consumed and the propylene oxide formed was estimated by gas chromatography. The propylene consumed was 0.29 μmoles, the oxygen consumed was 0.30 μmoles and the propylene oxide formed was 0.28 μmoles.

A short description of experiment [5]: Oxidation of methane and lower alkenes by washed cell suspensions of methane-grown methylotrophic strains. Format: cell-based. As to conditions: methane-grown methylotrophic microorganisms. On the procedure:
The isolates had been maintained on agar plates under an atmosphere of methane and air having a 1:1 v/v gas ratio which had been transferred every two weeks. The gaseous phase of the inoculated flasks was then replaced with a gas mixture comprised of methane and air having a ratio of 1:1 on a v/v basis.
The cells were harvested by centrifugation at 10,000×g. at 4° C. for 30 minutes. The cell pellet was washed twice with a 0.15 M phosphate buffer at a pH of 7.0 (containing 0.002 M MgCl2). The washed cells were then suspended in a 0.15 M phosphate buffer at pH 7.0.
A 0.5 ml sample of each washed cell suspension (2 mg cells) was put into 10 ml vials at 4° C. which were sealed with a rubber cap. The gaseous phase of the vials was removed with vacuum and then was replaced with a gas mixture of the oxidative substrate (e.g., methane) and oxygen at a 1:1 v/v ratio. The vials were then incubated at 30° C. on a rotary shaker at 300 rpm. Samples of product (3 μl) were withdrawn periodically with a microsyringe and the products were analyzed by gas chromatography (ionization flame detector column).
The newly discovered and isolated microorganism strains of the present invention were each grown aerobically in the presence of methane in the manner described above. […]

The nature of experiment [6]: Propylene- and methane-oxidizing activities in cell fractions P(40), P(80), S(80) of methylotrophs. Format: biochemical. As to conditions: in place of NADH. As for the experimental part: The oxidation of methane and propylene by particulate [(P)40 and(P)80] fractions and soluble [S(80)] fraction was measured at 30° C. by estimating the production of methanol and propylene oxide, respectively.
Reaction mixtures were contained in 10 ml vials at 4° C. Vials were sealed with rubber caps. The gaseous phase in the vials was removed using vacuum and then was replaced with a gas mixture of methane or propylene and oxygen at a 1:1, v/v ratio. Oxidation of other gaseous n-alkanes and n-alkenes was examined as described above. For liquid substrates, 10 μl of substrate was used directly. Vials were then incubated at 30° C. on a rotary shaker at 200 RPM.
The column temperature was maintained isothermally at 120° C. The carrier gas flow rate was 30 ml/min. of helium.

The record followed here is patent US4241184A, “Secondary alcohol dehydrogenase enzyme and use thereof” (priority 1979, dated 1980).

Take `C=CC` [Propylene]: in experiment [1], the “NADH Oxidized” value came to 5.0 µmol, the “O2 Consumed” value was 4.8 µmol and the “Product formed” value was determined as 4.5 µmol. For the same compound, the “inhibition of the conversion of the n-alkanes to the sec. alcohols” value in experiment [2] is on record as “inhibit”. For the same compound, the “Propylene Oxide Produced” value in experiment [3] (substrate competition, gas phase as labelled) turned out to be 4.3 μmoles/hr/mg. protein. Further, the “Rate of Product Formation” value in experiment [3] was 4.1 μ moles/hr/mg of protein. In experiment [4], this compound showed an oxygen consumed of 0.30 µmol, a propylene consumed of 0.29 µmol and a propylene oxide formed of 0.28 µmol.

For `C=CCCCC` [hexene-1], the “epoxide product from the substrate” value in experiment [5] is on record as “did not produce any detectable epoxide product”.

Regarding `C=CCCC` [1-Pentene], the “Rate of Product Formation” value in experiment [3] was 0 μ moles/hr/mg of protein. In experiment [5], the “epoxide product from the substrate” value was “did not produce any detectable epoxide product”.

In the case of `NC(=O)C1=CN([C@@H]2O[C@H](COP(=O)(O)OP(=O)(O)OC[C@H]3O[C@@H](n4cnc5c(N)ncnc54)[C@H](OP(=O)(O)O)[C@@H]3O)[C@@H](O)[C@H]2O)C=CC1` [NADPH, reduced nicotinamide adenine dinucleotide phosphate], the “electron carrier for epoxidation of propylene and hydroxylation of methane” value in experiment [6] was “could also be utilized”. The “electron donor in place of NADH for hydroxylation of n-alkanes” value in experiment [2] is listed as “could also be utilized”.
